# Test results reported in US20110039763A1, “TARGETED ANTIMICROBIAL MOIETIES” (C3 JIAN, INC., priority 2009, published 2011).
# Tests used:
# microorganisms [1] = assay: Peptide activities: targeting/binding, antimicrobial, growth or phenotype altering (Tables 7, 8); type: cell-based; details: peptides having multiple activities
# Text: In certain embodiments, peptides described herein can have multiple activities. Thus for example, a peptide can have both binding/targeting activity and antimicrobial activity. Such peptides can be used, e.g., in a chimeric construct, for any or all of these properties. Thus, for example, a peptide designated “B” in Table 8 can be used as a targeting peptide. If it is also designated G or M it can also be used for antimicrobial activity.
# Table 8. Peptides Having Multiple Activities. B: Targeting/Binding Activity; M: Antimicrobial Activity; G: GROWTH or Phenotype Altering.
# microorganisms [2] = assay: Morphology, biofilm and growth disrupting peptides (Table 5); type: cell-based; parameters: key: A: Peptide aggregates; B: Less hyphal formation; Clumps; Diffuse clumps and small polyps; F: Diffuse growth; H: Thin; I: Growth inhibition; Microcolony formation; Rippled; Small polyps; Thick; W: Halo formation on top, microlonies on bottom
# Text: In certain embodiments peptides that induce alterations in phenotype or other biological activities can also be used as antimicrobial effector moieties.
Substance,Activities (microorganisms [1]),"Organism, effect: C. jeikeium (microorganisms [2])","Organism, effect: M. luteus (microorganisms [2])","Organism, effect: MRSA (microorganisms [2])","Organism, effect: S. epidermidis (microorganisms [2])","Organism, effect: C. albicans (microorganisms [2])","Organism, effect: C. jejuni (microorganisms [2])","Organism, effect: E. coli (microorganisms [2]; E. coli)","Organism, effect: E. faecalis (microorganisms [2]; E. faecalis)","Organism, effect: S. pneumoniae (microorganisms [2])","Organism, effect: B. subtilis (microorganisms [2])","Organism, effect: P. aeruginosa (microorganisms [2])"
PF-001: peptide having multiple activities (MNNWIIVAQLSVTVINEIIDIMKEKQKGGK; Peptide with targeting and/or antimicrobial activity),G B,C. jeikeium (D),M. luteus (C),MRSA (R),S. epidermidis (C),,,,,,,
PF-004: peptide having multiple activities (ARLSKAIIIAVIVVYHLDVRGLF; Peptide with targeting and/or antimicrobial activity),G B,C. jeikeium (A),M. luteus (A),MRSA (R),S. epidermidis (A),,,,,,,
PF-012: peptide having multiple activities (WRGPNTEAGGKSANNIVQVGGAPT; Peptide with targeting and/or antimicrobial activity),G B,C. jeikeium (A),M. luteus (C),MRSA (R),S. epidermidis (S),,,,,,,
PF-022: peptide having multiple activities (MINELKNKNSGIMNNYVVTKESKL; Peptide with targeting and/or antimicrobial activity),G B,C. jeikeium (A),M. luteus (A),MRSA (R),S. epidermidis (D),,,,,,,
PF-030: peptide having multiple activities (MTCHQAPTTTHQSNMA; Peptide with targeting and/or antimicrobial activity),G B,C. jeikeium (C),M. luteus (C),MRSA (R),S. epidermidis (D),,,,,,,
PF-042: peptide having multiple activities (LLLSYFRYTGALLQSLF; Peptide with targeting and/or antimicrobial activity),G B,C. jeikeium (S),M. luteus (C),MRSA (R),S. epidermidis (D),,,,,,,
PF-057: peptide having multiple activities (TMIVISIPRFEEYMKARHKKWM; Peptide with targeting and/or antimicrobial activity),G B,C. jeikeium (A),M. luteus (C),MRSA (M),S. epidermidis (D),C. albicans (A),C. jejuni (D),E. coli (M),E. faecalis (A),S. pneumoniae (R),,
PF-063: peptide having multiple activities (IAAIIVLVLFQKGLLQIFNWILIQLQ; Peptide with targeting and/or antimicrobial activity),G B,C. jeikeium (D),M. luteus (R),MRSA (M),S. epidermidis (R),,C. jejuni (D),,,S. pneumoniae (D),B. subtilis (C),P. aeruginosa (A)
PF-067: peptide having multiple activities (DLIVKVHICFVVKTASGYCYLNKREAQAAI; Peptide with targeting and/or antimicrobial activity),G B,C. jeikeium (D),M. luteus (R),MRSA (M),S. epidermidis (D),,C. jejuni (D),,,S. pneumoniae (D),B. subtilis (C),P. aeruginosa (A)
PF-076: peptide having multiple activities (chain 1 LYQYELLSKEEYLKCTLIINQRRNEQK; chain 2 LYQYELLSKEEYLKCTLIINQRRNEQK; Peptide with targeting and/or antimicrobial activity),G B,C. jeikeium (A),M. luteus (A),MRSA (R),S. epidermidis (S),,,,,,,
PF-125: peptide having multiple activities (chain 1 YVVGALVILAVAGLIYSMLRKA; chain 2 YVVGALVILAVAGLIYSMLRKA; Peptide with targeting and/or antimicrobial activity),G B,,M. luteus (C),,S. epidermidis (D),,,,,,,
PF-139: peptide having multiple activities (chain 1 ALSKPAIQARTLCRRQDPP; chain 2 ALSKPAIQARTLCRRQDPP; Peptide with targeting and/or antimicrobial activity),G B,C. jeikeium (R),M. luteus (C),,S. epidermidis (M),,,,,,,
PF-140: peptide having multiple activities (chain 1 FHRRVIRASEWALTTRSFSTPLRSAAR; chain 2 FHRRVIRASEWALTTRSFSTPLRSAAR; Peptide with targeting and/or antimicrobial activity),G B,C. jeikeium (D),M. luteus (R),MRSA (M),S. epidermidis (D),C. albicans (B),C. jejuni (D),,,S. pneumoniae (D),,P. aeruginosa (A)
